Data published in patent US20040132696A1, “Therapeutic agents for pigmentation and melanocyte growth inhibitory agents” (priority 1999, published 2004).
Read-outs that look alike come from different tables or passages of the source.

Tests used:
Format in all cases: cell-based
[1] = test system: normal human epidermal keratinocytes (HEKn); test: Growth inhibition of cultured human keratinocytes (cell count by Coulter Counter); conditions: Keratinocyte, 144 h, read-out: inhibition against keratinocytes
Procedure: Keratinocytes: normal human epidermal keratinocytes (HEKn:C-001-5C, Kurabo Industries).
(§1) Melanocytes were cultured at 2×10^5 cells/well in MGM3 (Melanocyte Growth Medium 3, Takara Shuzo) used as a culture medium. Keratinocytes were cultured at 1×10^5 cells/well in KGM2 (Keratinocyte Growth Medium 2, Takara Shuzo) used as a culture medium. To each well was added 22-oxacalcitriol or calcitriol at a final concentration of 10^−7 M and cultivation was continued. On days 3 and 6 after the addition, the number of cells was determined by a Coulter Counter.

[2] = test system: normal human epidermal melanocytes (NHEM); test: Growth inhibition of cultured human melanocytes (cell count by Coulter Counter); conditions: Melanocyte, 144 h, read-out: inhibitory effect against the proliferation of melanocytes
Procedure: (§2) Melanocytes: normal human epidermal melanocytes (NHEM:KM-4009, Kurabo Industries).
as §1

[3] = test system: Human melanocytes; test: Tritiated thymidine (3[H]-TdR) uptake by cultured human melanocytes; conditions: 10^-7 M, day 1
Procedure: as §2
Human melanocytes were cultured at 5×10^5 cells/well in MGM3 used as a culture medium, and 22-oxacalcitriol or calcitriol was added to each well at a final concentration of 10^−7 M to determine tritiated thymidine (^3[H]-TdR) uptake by cells in a liquid scintillation counter on days 1, 3 and 5 after the addition.

[4] = 10^-7 M, day 6, average of 5 experiments

Row | SMILES | inhibition at 0.1 µM [1, 4] [%] | inhibition at 0.1 µM [2, 4] [%] | decrease in tritiated thymidine uptake [3] [%] | inhibition at 0.1 µM [1] [%] | inhibition at 0.1 µM [2] [%]
1 | C=C1/C(=C\C=C2/CCC[C@]3(C)[C@@H]([C@H](C)OCCC(C)(C)O)CC[C@@H]23)C[C@@H](O)C[C@@H]1O [22-oxacalcitriol] | 25 | ≥ 30 |  |  | 
2 | C=C1/C(=C\C=C2/CCC[C@]3(C)[C@@H]([C@H](C)CCCC(C)(C)O)CC[C@@H]23)C[C@@H](O)C[C@@H]1O [calcitriol, 1α,25-dihydroxyvitamin D3] |  |  | 50 | 40 | ≥ 30
